Measurements: patent publication US20190369111A1, “MOLECULAR KINETICS EVALUATION METHOD AND SCREENING METHOD” (Tokyo University of Science Foundation, priority 2016, published 2019)

Molecular target: T1, SOS1 protein (Homo sapiens, UniProt Q07889)
T1 construct: endogenous in cells; host or cells: HeLa cells
T1 sequence (Q07889 1-1333): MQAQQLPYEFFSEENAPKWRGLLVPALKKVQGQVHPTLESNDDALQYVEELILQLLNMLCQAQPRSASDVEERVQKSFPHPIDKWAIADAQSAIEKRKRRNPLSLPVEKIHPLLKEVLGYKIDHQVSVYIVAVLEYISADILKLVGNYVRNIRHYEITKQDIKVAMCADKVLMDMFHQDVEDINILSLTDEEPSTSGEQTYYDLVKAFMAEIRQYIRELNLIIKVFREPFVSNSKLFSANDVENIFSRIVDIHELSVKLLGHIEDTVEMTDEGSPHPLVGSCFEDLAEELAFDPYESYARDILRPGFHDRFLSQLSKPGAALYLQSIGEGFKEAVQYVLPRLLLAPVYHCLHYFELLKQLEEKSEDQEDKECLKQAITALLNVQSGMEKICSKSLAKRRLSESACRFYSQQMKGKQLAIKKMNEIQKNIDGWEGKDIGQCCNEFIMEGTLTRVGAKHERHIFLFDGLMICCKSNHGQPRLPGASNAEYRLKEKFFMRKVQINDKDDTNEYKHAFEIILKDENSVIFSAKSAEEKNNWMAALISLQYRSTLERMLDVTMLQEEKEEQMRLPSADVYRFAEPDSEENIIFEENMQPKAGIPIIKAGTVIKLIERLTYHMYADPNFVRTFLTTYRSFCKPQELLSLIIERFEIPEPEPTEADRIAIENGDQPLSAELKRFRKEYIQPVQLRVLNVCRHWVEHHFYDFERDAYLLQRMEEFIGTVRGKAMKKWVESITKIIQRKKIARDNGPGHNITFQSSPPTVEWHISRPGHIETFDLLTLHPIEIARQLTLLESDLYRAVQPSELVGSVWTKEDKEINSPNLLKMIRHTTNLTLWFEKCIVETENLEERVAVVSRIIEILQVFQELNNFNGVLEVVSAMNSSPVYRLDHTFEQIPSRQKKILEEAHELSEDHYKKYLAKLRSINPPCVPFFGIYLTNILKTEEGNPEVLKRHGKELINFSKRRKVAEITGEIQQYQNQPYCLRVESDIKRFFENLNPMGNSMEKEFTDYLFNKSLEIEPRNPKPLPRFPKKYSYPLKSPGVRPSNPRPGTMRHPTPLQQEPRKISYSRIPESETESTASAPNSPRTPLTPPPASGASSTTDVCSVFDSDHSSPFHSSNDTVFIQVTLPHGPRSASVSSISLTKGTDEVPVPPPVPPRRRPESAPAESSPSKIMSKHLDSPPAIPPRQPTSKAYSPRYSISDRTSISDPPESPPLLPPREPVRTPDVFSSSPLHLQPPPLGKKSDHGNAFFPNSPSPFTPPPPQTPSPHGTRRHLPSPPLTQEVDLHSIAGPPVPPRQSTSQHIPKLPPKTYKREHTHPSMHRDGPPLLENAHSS
Assay: Amount of SOS1 protein in HeLa cells, Western blot analysis
Type: cell-based
Details: 48 hours after addition
Description: HeLa cells were seeded in a 24-well plate at a cell density of 8×10^4 cells/well, and then cultured under conditions of 37° C. and 5 vol % CO2 for 16 hours.
After 16 hours from cell seeding, TUS-007 was added to HeLa cells as follows. As a medium, a serum-free medium (37° C.) in which 1 mass % L-glutamine solution (Sigma-Aldrich) was added to D-MEM (high D-glucose, phenol red, sodium pyruvate (Wako Pure Chemical Industries, Ltd.)) was used. It is noted that the L-glutamine solution was added immediately before use. A DMSO solution containing TUS-007 was mixed with the medium so that the concentration of DMSO was 1 vol %, and added to each well at 500 μL/well, and cultured under conditions of 37° C. and 5 vol % CO2. As a control, DMSO was used.
The medium was removed 48 hours after addition of TUS-007, and then PBS was added to wash the cells. […]
After electrophoresis, proteins were transferred to a PVDF membrane (Immobion™-P, Millipore) under conditions of 100 V and 2 hours using a tank-type blotting device and a transfer buffer (25 mM Tris-HCl, 195 mM glycine, 0.01% SDS, 15% methanol). […] Subsequently, the membrane was treated with a chemiluminescence reagent Immobilon™ Western (Millipore), and then chemiluminescence was detected using a lumino image analyzer LAS-3000 (FUJIFILM Corporation). […]

## CC[C@@H](C)[C@H](NC(=O)CCCCCCNC(=O)[C@H](CC(C)C)NC(=O)CNC(=O)c1cc(Cl)ccc1Cl)C(=O)Nc1ccc2[nH]c(Cc3c[nH]c4ccccc34)nc2c1 [TUS-007]
  amount of SOS1 protein: not reduced
